According to the supplement of paper PMC9663587:

Columns and labels:
Test in all cases: increase in dead-cell fraction, 72 h; higher = more death;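 note: breast cancer cell lines in 384-well plates, stained with Hoechst plus LIVE/DEAD far red dye and imaged, cells above an LDR intensity threshold counted dead, Hoechst-negative corpses included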
YKL-5-124 = compound: C=CC(=O)Nc1ccc(C(=O)Nc2[nH]nc3c2CN(C(=O)N[C@H](CN(C)C)c2ccccc2)C3(C)C)cc1 [YKL-5-124]
BSJ-03-123 = compound: CC(=O)c1c(C)c2cnc(Nc3ccc(N4CCN(CCOCCOCCOCCNC(=O)COc5cccc6c5C(=O)N(C5CCC(=O)NC5=O)C6=O)CC4)cn3)nc2n(C2CCCC2)c1=O [BSJ-03-123]
[1] = compound: CC(=O)c1c(C)c2cnc(Nc3ccc(N4CCNCC4)cn3)nc2n(C2CCCC2)c1=O
[2] = compound: CCN1CCN(Cc2ccc(Nc3ncc(F)c(-c4cc(F)c5nc(C)n(C(C)C)c5c4)n3)nc2)CC1
Neratinib/HKI272 = compound: CCOc1cc2ncc(C#N)c(Nc3ccc(OCc4ccccn4)c(Cl)c3)c2cc1NC(=O)/C=C/CN(C)C [Neratinib/HKI272]
[3] = compound: CCc1cnn2c(NCc3ccc[n+]([O-])c3)cc(N3CCCC[C@H]3CCO)nc12

## SUM149
YKL-5-124; 0.001 µM
  increase in dead-cell fraction: 0.0758
YKL-5-124; 0.003162 µM
  increase in dead-cell fraction: 0.1
YKL-5-124; 0.01 µM
  increase in dead-cell fraction: 0.103
YKL-5-124; 0.03162 µM
  increase in dead-cell fraction: 0.0843
YKL-5-124; 0.1 µM
  increase in dead-cell fraction: 0.124
YKL-5-124; 0.3162 µM
  increase in dead-cell fraction: 0.124
YKL-5-124; 1 µM
  increase in dead-cell fraction: 0.0859
YKL-5-124; 3.162 µM
  increase in dead-cell fraction: 0.172
YKL-5-124; 10 µM
  increase in dead-cell fraction: 0.199
BSJ-03-123; 0.001 µM
  increase in dead-cell fraction: -0.0068
BSJ-03-123; 0.003162 µM
  increase in dead-cell fraction: -0.0064
BSJ-03-123; 0.01 µM
  increase in dead-cell fraction: -0.0053
BSJ-03-123; 0.03162 µM
  increase in dead-cell fraction: 0.0051
BSJ-03-123; 0.1 µM
  increase in dead-cell fraction: 0.0006
BSJ-03-123; 0.3162 µM
  increase in dead-cell fraction: -0.0032
BSJ-03-123; 1 µM
  increase in dead-cell fraction: 0.0245
BSJ-03-123; 3.162 µM
  increase in dead-cell fraction: 0.0364
BSJ-03-123; 10 µM
  increase in dead-cell fraction: 0.217
[1]; 0.0003162 µM
  increase in dead-cell fraction: 0.0026
[1]; 0.001 µM
  increase in dead-cell fraction: 0.0019
[1]; 0.003162 µM
  increase in dead-cell fraction: 0.0012
[1]; 0.01 µM
  increase in dead-cell fraction: -0.0029
[1]; 0.03162 µM
  increase in dead-cell fraction: -0.003
[1]; 0.1 µM
  increase in dead-cell fraction: 0.0002
[1]; 0.3162 µM
  increase in dead-cell fraction: -0.0014
[1]; 1 µM
  increase in dead-cell fraction: -0.0001
[1]; 3.162 µM
  increase in dead-cell fraction: 0.0028
[2]; 0.001 µM
  increase in dead-cell fraction: -0.0036
[2]; 0.003162 µM
  increase in dead-cell fraction: -0.0058
[2]; 0.01 µM
  increase in dead-cell fraction: -0.0009
[2]; 0.03162 µM
  increase in dead-cell fraction: -0.0068
[2]; 0.1 µM
  increase in dead-cell fraction: -0.0045
[2]; 0.3162 µM
  increase in dead-cell fraction: -0.0069
[2]; 1 µM
  increase in dead-cell fraction: -0.0076
[2]; 3.162 µM
  increase in dead-cell fraction: -0.0046
[2]; 10 µM
  increase in dead-cell fraction: 0.0956
Neratinib/HKI272; 0.0003162 µM
  increase in dead-cell fraction: -0.0005
Neratinib/HKI272; 0.001 µM
  increase in dead-cell fraction: -0.0026
Neratinib/HKI272; 0.003162 µM
  increase in dead-cell fraction: -0.0047
Neratinib/HKI272; 0.01 µM
  increase in dead-cell fraction: -0.0034
Neratinib/HKI272; 0.03162 µM
  increase in dead-cell fraction: 0.001
Neratinib/HKI272; 0.1 µM
  increase in dead-cell fraction: 0.0172
Neratinib/HKI272; 0.3162 µM
  increase in dead-cell fraction: 0.0405
Neratinib/HKI272; 1 µM
  increase in dead-cell fraction: 0.0409
Neratinib/HKI272; 3.162 µM
  increase in dead-cell fraction: 0.0594
[3]; 0.0001 µM
  increase in dead-cell fraction: -0.0003
[3]; 0.0003162 µM
  increase in dead-cell fraction: -0.0062
[3]; 0.001 µM
  increase in dead-cell fraction: 0.0017
[3]; 0.003162 µM
  increase in dead-cell fraction: 0.0022
[3]; 0.01 µM
  increase in dead-cell fraction: 0.021
[3]; 0.03162 µM
  increase in dead-cell fraction: 0.756
[3]; 0.1 µM
  increase in dead-cell fraction: 0.832
[3]; 0.3162 µM
  increase in dead-cell fraction: 0.831
[3]; 1 µM
  increase in dead-cell fraction: 0.814
